According to PMC10913484, “Hydroxyhexylitaconic acids as potent IMP-type metallo-β-lactamase inhibitors for controlling carbapenem resistance in Enterobacterales” (Microbiology Spectrum, 2024):
≈ marks a conversion by molar mass, not a printed value. Like-named read-outs stand apart in the source and are kept apart here.

Legend:
E. coli DH5α pBC-IMP-1 = assay: Susceptibility test (microdilution), transformant; format: cell-based; conditions: Escherichia coli
Method: (§1) Susceptibility testing, based on the microdilution method, was performed according to the guidelines of the Clinical and Laboratory Standards Institute ([36]).

E. coli DH5α pBC-NDM-1 = assay: Susceptibility test (microdilution), transformant; format: cell-based; conditions: for MPM MIC: E. coli DH5α pBC-NDM-1
Method: as §1

E. coli DH5α pCL-SMB-1 = assay: Susceptibility test (microdilution), transformant; format: cell-based; conditions: for MPM MIC: E. coli DH5α pCL-SMB-1
Method: as §1

IMP-6 = target: T1, IMP-6 (Serratia marcescens, UniProt P52699, S214G); assay: In vitro inhibition assay (IPM hydrolysis); format: biochemical
T1 construct: made in house
T1 sequence (P52699 19-246 S214G): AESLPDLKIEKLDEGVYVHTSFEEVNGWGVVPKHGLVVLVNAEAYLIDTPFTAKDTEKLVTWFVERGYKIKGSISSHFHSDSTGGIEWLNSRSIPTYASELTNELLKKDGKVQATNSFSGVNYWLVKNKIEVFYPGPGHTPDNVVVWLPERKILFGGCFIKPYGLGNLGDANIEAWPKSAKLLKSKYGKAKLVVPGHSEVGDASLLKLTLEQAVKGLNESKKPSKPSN
Method: (§2) MBLs were incubated with HHIAs in 20 mM HEPES buffer (pH 7.5) containing 200 mM NaCl and 50 µg/mL BSA at 30°C for 5 min. IPM was added at a concentration of 100 µM, and the rate of IPM hydrolysis was monitored at 297 nm. The initial velocity (v0) rates were plotted against HHIA’s logarithmic concentrations, and the data were fitted to a four-parameter variable slope to obtain the half-maximal inhibitor concentration (IC50) values using GraphPad Prism 9 software (GraphPad Software). The inhibition constant (Ki) was determined as follows: v0 was measured after varying the concentrations of IPM and HHIAs, and inverse v0 (1/v0) was plotted against the inverse IPM concentration [1/(IPM)]. Lineweaver–Burk plots were created to obtain Ki values under the competitive inhibition model using the SigmaPlot 14 suite (Hulinks).

IMP-1 [1] = target: T2, IMP-1 (Serratia marcescens, UniProt P52699); assay: In vitro inhibition assay (IPM hydrolysis); format: biochemical
T2 construct: made in house
T2 sequence (P52699 19-246, looked up, species assumed): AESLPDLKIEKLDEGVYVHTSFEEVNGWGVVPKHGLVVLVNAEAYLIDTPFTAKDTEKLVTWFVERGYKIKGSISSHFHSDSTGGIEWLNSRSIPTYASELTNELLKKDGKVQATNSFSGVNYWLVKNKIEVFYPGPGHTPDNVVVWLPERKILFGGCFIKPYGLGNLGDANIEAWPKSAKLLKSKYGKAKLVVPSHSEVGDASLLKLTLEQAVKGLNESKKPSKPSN
Method: as §2

NDM-1 = target: T3, NDM-1 (Klebsiella pneumoniae, UniProt C7C422); assay: In vitro inhibition assay (IPM hydrolysis); format: biochemical; conditions: even at high doses (100 µM)
T3 construct: made in house
T3 sequence (C7C422 29-270 limits assumed): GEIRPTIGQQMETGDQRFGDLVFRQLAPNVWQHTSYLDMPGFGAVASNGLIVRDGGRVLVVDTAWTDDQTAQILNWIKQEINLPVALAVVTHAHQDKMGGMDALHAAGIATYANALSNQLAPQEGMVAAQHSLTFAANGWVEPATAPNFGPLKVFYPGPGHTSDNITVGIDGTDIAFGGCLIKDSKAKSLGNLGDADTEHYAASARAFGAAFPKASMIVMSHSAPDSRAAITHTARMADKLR
Method: as §2

VIM-2 = target: T4, VIM-2 (Escherichia coli, UniProt Q5U7L7); assay: In vitro inhibition assay (IPM hydrolysis); format: biochemical
T4 construct: made in house
Method: as §2

SMB-1 = assay: In vitro inhibition assay (IPM hydrolysis); format: biochemical; conditions: even at high doses (100 µM)
Method: as §2

[2] = tested on: K. pneumoniae AR0076 (VIM-1); assay: Susceptibility test, clinical isolate; format: cell-based; conditions: Klebsiella pneumoniae
Method: as §1

E. coli 465 (IMP-1) = assay: Susceptibility test, clinical isolate; format: cell-based; conditions: Escherichia coli
Method: as §1

[3] = tested on: P. penneri E11-M475 (IMP-1); assay: Susceptibility test, clinical isolate; format: cell-based; conditions: Proteus penneri
Method: as §1

[4] = tested on: E. cloacae NUBL-5 (IMP-1); assay: Susceptibility test, clinical isolate; format: cell-based; conditions: Enterobacter cloacae
Method: as §1

[5] = tested on: K. pneumoniae NUBL-23 (IMP-6); assay: Susceptibility test, clinical isolate; format: cell-based; conditions: Klebsiella pneumoniae
Method: as §1

[6] = tested on: K. pneumoniae MS5674 (NDM-1/VIM-1); assay: Susceptibility test, clinical isolate; format: cell-based; conditions: Klebsiella pneumoniae
Method: as §1

E. coli NUBL-22 (IMP-6) = assay: Susceptibility test, clinical isolate; format: cell-based; conditions: Escherichia coli
Method: as §1

[7] = tested on: K. pneumoniae AR0034 (IMP-4); assay: Susceptibility test, clinical isolate; format: cell-based; conditions: Klebsiella pneumoniae
Method: as §1

E. coli NUBL-24 (IMP-1) = assay: Susceptibility test, clinical isolate; format: cell-based; conditions: Escherichia coli
Method: as §1

IMP-1 [8] = target: T2, IMP-1; format: biochemical; conditions: IMP-1 with agent (5 mM stock), dialysis
Method: A total of 5 µL of IMP-1 (100 µM) and 2 µL of EDTA (5 mM) or HHIA (5 mM) were mixed in 100 µL of 20 mM HEPES buffer (pH 7.5) pretreated with Chelex 100 resin (Bio-Rad) and incubated on ice for 30 min. The samples were dialyzed against ultrapure water at 4°C for 6 h using Slide-A-Lyzer Dialysis Cassettes (cutoff, 3.5 K) (Thermo Fisher Scientific) and treated with proteinase K (FUJIFILM Wako Pure Chemical Corporation) at 37°C for 1 h. The zinc concentration in the samples was determined using a Zinc Assay Kit (MG Metallogenics).

[9] = Escherichia coli, read-out: MPM MIC
[10] = +HHIA 6.25 µg/mL, read-out: IPM MIC
[11] = +HHIA 6.25 μg/mL, read-out: MPM MIC
[12] = +HHIA 25 µg/mL, read-out: IPM MIC
[13] = +HHIA 25 μg/mL, read-out: MPM MIC
[14] = +HHIA 100 µg/mL, read-out: IPM MIC
[15] = +HHIA 100 μg/mL, read-out: MPM MIC

C=C(C(=O)O)C(CCCCCCO)C(=O)O (stereo not shown) [10-HHIA, 10-hydroxyhexylitaconic acid] was tested, and the MIC (E. coli DH5α pBC-IMP-1; read-out: MPM MIC, +agent 25 μg/mL) was 0.125 µg/mL (≈ 0.543 µM), the MIC (E. coli DH5α pBC-IMP-1; read-out: MPM MIC, +agent 100 μg/mL) was at most 0.0625 µg/mL and the “MPM MIC” value (E. coli DH5α pBC-NDM-1; +agent 25 μg/mL) was 64 µg/mL. The “MPM MIC” value (E. coli DH5α pBC-NDM-1; +agent 100 μg/mL) was 64 µg/mL, the MIC (E. coli DH5α pBC-NDM-1; [9]) was 64 µg/mL (≈ 278 µM) and the “MPM MIC” value (E. coli DH5α pCL-SMB-1; +agent 25 μg/mL) was 32 µg/mL. The “MPM MIC” value (E. coli DH5α pCL-SMB-1; +agent 100 μg/mL) was 32 µg/mL, the MIC (E. coli DH5α pCL-SMB-1; [9]) was 32 µg/mL (≈ 139 µM) and the Ki (IMP-6) was 21 µM. The IC50 (IMP-1 [1]) was 31.6 µM, the Ki (IMP-1 [1]) was 5 µM and the “Inhibition mode for IMP-1” value (IMP-1 [1]; Lineweaver–Burk plots) was “competitive inhibitors”. The “Inhibition of hydrolyzing activity of NDM-1” value (NDM-1) was “did not inhibit”, the “Inhibitory activity against VIM-2” value (VIM-2) was “moderate” and the “Inhibition of hydrolyzing activity of SMB-1” value (SMB-1) was “did not inhibit”. For the same compound, the MIC [2, 10] was 32 µg/mL (≈ 139 µM), the MIC [2, 11] was 32 µg/mL (≈ 139 µM) and the MIC [2, 12] was 32 µg/mL (≈ 139 µM). For the same compound, the MIC [2, 13] was 32 µg/mL (≈ 139 µM), the MIC [2, 14] was 16 µg/mL (≈ 69.5 µM) and the MIC [2, 15] was 32 µg/mL (≈ 139 µM). For the same compound, the MIC (E. coli 465 (IMP-1); [10]) was 16 µg/mL (≈ 69.5 µM), the MIC (E. coli 465 (IMP-1); [11]) was 16 µg/mL (≈ 69.5 µM) and the MIC (E. coli 465 (IMP-1); [12]) was 4 µg/mL (≈ 17.4 µM). It also gave an MIC (E. coli 465 (IMP-1); [13]) of 4 µg/mL (≈ 17.4 µM), an MIC (E. coli 465 (IMP-1); [14]) of 1 µg/mL (≈ 4.34 µM) and an MIC (E. coli 465 (IMP-1); [15]) of 0.25 µg/mL (≈ 1.09 µM). The MIC [3, 10] was over 64 µg/mL, the MIC [3, 11] was over 64 µg/mL and the MIC [3, 12] was over 64 µg/mL. For the same compound, the MIC [3, 13] was over 64 µg/mL, the MIC [3, 14] was 64 µg/mL (≈ 278 µM) and the MIC [3, 15] was 16 µg/mL (≈ 69.5 µM). The MIC [4, 10] was 8 µg/mL (≈ 34.7 µM), the MIC [4, 11] was 16 µg/mL (≈ 69.5 µM) and the MIC [4, 12] was 4 µg/mL (≈ 17.4 µM). For the same compound, the MIC [4, 13] was 16 µg/mL (≈ 69.5 µM), the MIC [4, 14] was 1 µg/mL (≈ 4.34 µM) and the MIC [4, 15] was 8 µg/mL (≈ 34.7 µM). It also gave an MIC [5, 10] of 0.5 µg/mL (≈ 2.17 µM), an MIC [5, 11] of 32 µg/mL (≈ 139 µM) and an MIC [5, 12] of 0.25 µg/mL (≈ 1.09 µM). The MIC [5, 13] was 2 µg/mL (≈ 8.69 µM), the MIC [5, 14] was 0.5 µg/mL (≈ 2.17 µM) and the MIC [5, 15] was 0.25 µg/mL (≈ 1.09 µM). It also gave an MIC [6, 10] of 32 µg/mL (≈ 139 µM), an MIC [6, 11] of over 64 µg/mL and an MIC [6, 12] of 64 µg/mL (≈ 278 µM). It also gave an MIC [6, 13] of over 64 µg/mL, an MIC [6, 14] of 32 µg/mL (≈ 139 µM) and an MIC [6, 15] of 64 µg/mL (≈ 278 µM). For the same compound, the MIC (E. coli NUBL-22 (IMP-6); [10]) was 1 µg/mL (≈ 4.34 µM), the MIC (E. coli NUBL-22 (IMP-6); [11]) was 16 µg/mL (≈ 69.5 µM) and the MIC (E. coli NUBL-22 (IMP-6); [12]) was 0.5 µg/mL (≈ 2.17 µM). The MIC (E. coli NUBL-22 (IMP-6); [13]) was 8 µg/mL (≈ 34.7 µM), the MIC (E. coli NUBL-22 (IMP-6); [14]) was 0.5 µg/mL (≈ 2.17 µM) and the MIC (E. coli NUBL-22 (IMP-6); [15]) was 1 µg/mL (≈ 4.34 µM). For the same compound, the MIC ([7]; +HHIA 6.25 µg/mL, K. pneumoniae AR0034 (IMP-4), read-out: IPM MIC) was 2 µg/mL (≈ 8.69 µM), the MIC ([7]; +HHIA 6.25 μg/mL, K. pneumoniae AR0034 (IMP-4), read-out: MPM MIC) was 4 µg/mL (≈ 17.4 µM) and the MIC ([7]; +HHIA 25 µg/mL, K. pneumoniae AR0034 (IMP-4), read-out: IPM MIC) was 1 µg/mL (≈ 4.34 µM). For the same compound, the MIC ([7]; +HHIA 25 μg/mL, K. pneumoniae AR0034 (IMP-4), read-out: MPM MIC) was 0.5 µg/mL (≈ 2.17 µM), the MIC ([7]; +HHIA 100 µg/mL, K. pneumoniae AR0034 (IMP-4), read-out: IPM MIC) was 0.5 µg/mL (≈ 2.17 µM) and the MIC ([7]; read-out: MPM MIC) was 0.125 µg/mL (≈ 0.543 µM). The MIC (E. coli NUBL-24 (IMP-1); +HHIA 6.25 µg/mL, E. coli NUBL-24 (IMP-1), read-out: IPM MIC) was 4 µg/mL (≈ 17.4 µM), the MIC (E. coli NUBL-24 (IMP-1); +HHIA 6.25 μg/mL, E. coli NUBL-24 (IMP-1), read-out: MPM MIC) was 4 µg/mL (≈ 17.4 µM) and the MIC (E. coli NUBL-24 (IMP-1); +HHIA 25 µg/mL, E. coli NUBL-24 (IMP-1), read-out: IPM MIC) was 1 µg/mL (≈ 4.34 µM). It also gave an MIC (E. coli NUBL-24 (IMP-1); +HHIA 25 μg/mL, E. coli NUBL-24 (IMP-1), read-out: MPM MIC) of 0.5 µg/mL (≈ 2.17 µM), an MIC (E. coli NUBL-24 (IMP-1); +HHIA 100 µg/mL, E. coli NUBL-24 (IMP-1), read-out: IPM MIC) of 1 µg/mL (≈ 4.34 µM) and an MIC (E. coli NUBL-24 (IMP-1); read-out: MPM MIC) of 0.125 µg/mL (≈ 0.543 µM). For the same compound, the “Zinc ions in IMP-1 after treatment” value (IMP-1 [8]) was “did not cause a significant loss of zinc ions”.
